These are literature values, as cited in patent US20230330230A1, “SENSITISER FOR CANCER TREATMENT” (KORTUC INC, priority 2020, published 2023).

Series [1] deals with osteosarcoma (HS-Os-1) cell line.
Series [2] has as its system prostate cancer (PC-3) cell line.
[3] abbreviates: 0.1 mM H2O2 prior to IR, without DNA double strand breaks.

Take `OO` [H2O2, hydrogen peroxide]: the “response to H2O2 alone” value in series [1] and in series [2] was “extreme resistance” throughout. Besides, the “effect of H2O2 prior to IR” value in series [1] (setting [3]) and in series [2] (setting [3]) was “enhanced cytotoxicity” each time.
